Results: DBAASP
≈ marks a conversion by molar mass, not a printed value. Where “and” joins values, the source holds several entries; their conditions need not be identical. Identical values can stand only once.

What was measured:
Experiment in all cases: ≥ marks a high value that may be exact or a test limit, other limits are often not marked, values filed in µg/mL are converted to µM
[1] = tested on: Streptococcus sanguinis NY101
[2] = tested on: Streptococcus mutans UA159
[3] = tested on: Streptococcus mitis ATCC 903
[4] = tested on: Staphylococcus aureus
[5] = tested on: Pseudomonas aeruginosa PAK
[6] = tested on: Streptococcus gordonii Challis DL1
[7] = tested on: Staphylococcus aureus ATCC 25923
[8] = tested on: Staphylococcus aureus ATCC 43300
[9] = tested on: Salmonella enterica subsp. enterica serovar Pullorum ATCC 7913
[10] = tested on: Salmonella enterica subsp. enterica serovar Typhimurium ATCC 14028
[11] = tested on: Staphylococcus epidermidis ATCC 12228
[12] = tested on: Escherichia coli UB1005
[13] = tested on: Escherichia coli 078
[14] = tested on: Salmonella enterica subsp. enterica serovar Typhimurium C77-31
[15] = tested on: Candida tropicalis CGMCC 2.1975
[16] = tested on: Escherichia coli K99
[17] = tested on: Pseudomonas aeruginosa ATCC 27853
[18] = tested on: Escherichia coli K88
[19] = tested on: Candida parapsilosis CGMCC 2.3989
[20] = tested on: Staphylococcus aureus ATCC 29213
[21] = tested on: Salmonella typhimurium ATCC 7731
[22] = tested on: Bacillus subtilis CMCC 63501

| Compound | MIC [1] | MIC [2] | MIC [3] | MIC [4] | MIC [5] | MIC [6] | MIC [10] | MIC [11] | MIC [12] | MIC [17] | further results |
| --- | --- | --- | --- | --- | --- | --- | --- | --- | --- | --- | --- |
| CC[C@H](C)[C@H](NC(=O)[C@H](Cc1ccccc1)NC(=O)[C@H](Cc1cnc[nH]1)NC(=O)[C@H](CCCCN)NC(=O)[C@@H](NC(=O)[C@@H](N)Cc1ccccc1)[C@@H](C)CC)C(=O)N[C@@H](Cc1cnc[nH]1)C(=O)N[C@@H](CCCN=C(N)N)C(=O)N[C@@H](Cc1ccccc1)C(=O)NCC(=O)NCC(=O)NCC(=O)N[C@@H](CCCN=C(N)N)C(=O)N[C@@H](Cc1c[nH]c2ccccc12)C(=O)N[C@@H](CCCN=C(N)N)C(=O)N[C@@H](Cc1c[nH]c2ccccc12)C(=O)N[C@@H](CCCN=C(N)N)C(=O)N[C@@H](Cc1c[nH]c2ccccc12)C(=O)N[C@@H](Cc1ccccc1)C(N)=O [FIKHFIHRFGGGRWRWRWF] | 12.4 µM (≈ 32 µg/mL) | 3.09 µM (≈ 8 µg/mL) | 12.4 µM (≈ 32 µg/mL) | 12.4 µM (≈ 32 µg/mL) | 24.1 µM (≈ 62.5 µg/mL) | 12.4 µM (≈ 32 µg/mL) | – | – | – | – | – |
| CC[C@H](C)[C@H](NC(=O)[C@H](Cc1ccccc1)NC(=O)[C@H](Cc1cnc[nH]1)NC(=O)[C@H](CCCCN)NC(=O)[C@@H](NC(=O)[C@@H](N)Cc1ccccc1)[C@@H](C)CC)C(=O)N[C@@H](Cc1cnc[nH]1)C(=O)N[C@@H](CCCN=C(N)N)C(=O)N[C@@H](Cc1ccccc1)C(=O)N[C@@H](CO)C(=O)NCC(=O)NCC(=O)N[C@@H](CC(C)C)C(=O)N[C@@H](CCC(N)=O)C(=O)N[C@@H](CC(C)C)C(=O)N[C@@H](CC(C)C)C(=O)N[C@@H](CCCCN)C(=O)N[C@@H](CCC(N)=O)C(=O)N[C@@H](CC(C)C)C(=O)N[C@@H](CC(C)C)C(=O)N[C@@H](CCCCN)C(=O)N[C@@H](CC(C)C)C(=O)N[C@@H](CC(C)C)C(=O)N[C@@H](CCCCN)C(=O)N[C@@H](CCC(N)=O)C(=O)N[C@@H](Cc1ccccc1)C(N)=O [FIKHFIHRFSGGLQLLKQLLKLLKQF] | 10.1 µM (≈ 32 µg/mL) | 5.07 µM (≈ 16 µg/mL) | 19.8 µM (≈ 62.5 µg/mL) | 10.1 µM (≈ 32 µg/mL) | 10.1 µM (≈ 32 µg/mL) | 2.54 µM (≈ 8 µg/mL) | – | – | – | – | – |
| CC[C@H](C)[C@H](NC(=O)[C@H](CCCN=C(N)N)NC(=O)[C@H](C)NC(=O)[C@H](C)N)C(=O)N[C@H](C(=O)N[C@@H](CC(C)C)C(=O)N[C@@H](CCCN=C(N)N)C(=O)N[C@@H](CC(C)C)C(=O)N[C@@H](CCCN=C(N)N)C(=O)N[C@@H](Cc1ccccc1)C(=O)N[C@@H](CCCN=C(N)N)C(N)=O)[C@@H](C)CC [AARIILRLRFR] | – | – | – | – | – | – | 4 µM (≈ 5.54 µg/mL) | 2 µM (≈ 2.77 µg/mL) | 4 µM (≈ 5.54 µg/mL) | 8 µM (≈ 11.1 µg/mL) | MIC [7]: 2 µM (≈ 2.77 µg/mL); MIC [8]: 2 µM (≈ 2.77 µg/mL); MIC [9]: 4 µM (≈ 5.54 µg/mL); MIC [13]: 4 µM (≈ 5.54 µg/mL); MIC [14]: 4 µM (≈ 5.54 µg/mL); MIC [15]: 4 µM (≈ 5.54 µg/mL); MIC [16]: 2 µM (≈ 2.77 µg/mL); MIC [18]: 4 µM (≈ 5.54 µg/mL); MIC [19]: 4 µM (≈ 5.54 µg/mL) |
| CC[C@H](C)[C@H](NC(=O)[C@H](C)NC(=O)[C@H](CCCCN)NC(=O)[C@H](Cc1ccc(O)cc1)NC(=O)[C@H](CC(C)C)NC(=O)[C@H](C)NC(=O)[C@@H](NC(=O)[C@@H](NC(=O)[C@H](CC(N)=O)NC(=O)[C@@H](NC(=O)[C@H](C)NC(=O)[C@@H](NC(=O)[C@@H]1CCCN1C(=O)[C@@H](NC(=O)[C@H](CC(C)C)NC(=O)[C@@H]1CCCN1C(=O)[C@H](Cc1c[nH]c2ccccc12)NC(=O)[C@H](Cc1ccccc1)NC(=O)[C@H](CCCN=C(N)N)NC(=O)[C@@H](N)CCCCN)C(C)C)C(C)C)[C@@H](C)CC)[C@@H](C)O)C(C)C)C(=O)N[C@@H](CCCN=C(N)N)C(=O)N[C@@H](CCCN=C(N)N)C(=O)N[C@@H](CCCCN)C(N)=O [KRFWPLVPVAINTVALYKAIRRK] | – | – | – | – | – | – | 4 µM (≈ 11 µg/mL) | 4 µM (≈ 11 µg/mL) | 4 µM (≈ 11 µg/mL) | 4 µM and > 2 µM | MIC [20]: 4 µM (≈ 11 µg/mL); MIC [21]: 2 µM (≈ 5.48 µg/mL); MIC [22]: 4 µM (≈ 11 µg/mL) |
